We go through 2 substances from patent US20160257988A1, “Indicator Molecules For Use In Detecting Enzyme Cleavage Activity” (Mologic Limited, priority 2013, published 2016).

The target in the test is T1, Matrix-Metalloproteinase 9 (MMP9) (Homo sapiens, UniProt P14780).
T1 construct: 5 μl sample (active MMP9 at 2 μg/ml)
Briefly: Fluorogenic peptide cleavage assay with active MMP9 (kinetic fluorescence scan). The class given is biochemical. The settings on record: active MMP9 at 2 μg/ml, 5 μl of 0.2 mM peptide per well; excitation 328 nm, emission 400 nm; kinetic scan 30 min; FIG. 3. The protocol:
2 flurogenic peptides with 1 (PCL0174 A4) or 2 (PCL0174 B1) cleavable sequences respectively were investigated with sensitivity towards Matrix-Metalloproteinase 9 (MMP9).
96-well assay plate, black polystyrene, Costar®, Corning Inc. (Cat. #3925, lot #25011023)
MMP buffer, Aq. Solution of 50 mM Tris, 100 mM sodium chloride, 10 mM Calcium Chloride, 50 μM […] zinc chloride, 0.025% Brij 35, 0.05% sodium azide at pH 8.0.
Peptides PCL0174 A4 and PCL0174 B1 at a molar concentration of 8 mM
Testing Method • Peptides at a stock of 8 mM were diluted to 0.2 mM in MMP buffer • 2 μl+78 μl MMP buffer • 5 μl sample (active MMP9 at 2 μg/ml)+190 μl MMP buffer added to well • 5 μl of 0.2 mM peptide added per well • Read on a Fluorometer using the following settings: • Excitation wavelength: 328 nm, bandwidth 5 nm • Emission wavelength: 400 nm, bandwidth 5 nm • Kinetic scan: 30 min, interval 1 min

T1 sequence (P14780 107-707 limits assumed, species assumed): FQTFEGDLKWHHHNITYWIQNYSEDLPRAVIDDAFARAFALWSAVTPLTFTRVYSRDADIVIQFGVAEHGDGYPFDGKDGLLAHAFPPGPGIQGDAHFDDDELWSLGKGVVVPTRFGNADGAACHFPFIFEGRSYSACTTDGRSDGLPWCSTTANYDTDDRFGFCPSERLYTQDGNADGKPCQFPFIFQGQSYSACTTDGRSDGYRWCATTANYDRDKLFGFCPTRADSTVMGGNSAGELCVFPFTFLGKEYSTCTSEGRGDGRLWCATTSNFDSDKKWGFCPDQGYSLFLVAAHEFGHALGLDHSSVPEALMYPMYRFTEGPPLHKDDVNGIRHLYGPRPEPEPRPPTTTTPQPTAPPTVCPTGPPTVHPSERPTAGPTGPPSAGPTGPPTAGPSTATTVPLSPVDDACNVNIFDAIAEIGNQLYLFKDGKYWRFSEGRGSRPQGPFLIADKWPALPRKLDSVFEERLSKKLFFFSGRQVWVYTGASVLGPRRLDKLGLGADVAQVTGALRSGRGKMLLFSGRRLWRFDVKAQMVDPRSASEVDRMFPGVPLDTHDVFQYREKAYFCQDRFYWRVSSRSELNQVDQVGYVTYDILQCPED

For the substance “Lys(Mc Coumarin)-[GPQGIFGQ])-[GPQGIFGQ]-Lys(Dnp)G [2 CS]”, the “running time at which the same result (signal) is achieved” value came out at 8 min. On to “Lys(Mc Coumarin)-[GPQGIFGQ]-Lys(Dnp)G [1 CS]”, for which the “running time at which the same result (signal) is achieved” value was 30 min.
